Results published in ChEMBL document CHEMBL1201862, “PubChem BioAssay data set” (2004).
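Tested at 5 concentrations; 48 h exposure; 96-well plates; endpoints linearly interpolated, else capped at highest concentration. The concentration for 50% growth inhibition is given as GI50.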 The source made the active and inactive calls. Rule as the data show it: active = GI50 up to about 1.1 µM and inactive = higher. Where a SMILES comes first, the peptide text is derived from it. [ ]: non-standard residue; d: D form. The star is where a group is joined. Phe(4-NO2) = N[CH](Cc1ccc([N+](=O)[O-])cc1)C(=O)O; Boc = CC(C)(C)OC(=O)*; OBn = c1ccc(CO*)cc1

Columns and labels:
Assay in all cases: growth of human tumour cells (NCI), 48 h
Hs-578T = tested on: Hs-578T
IGROV-1 = tested on: IGROV-1
SK-MEL-2 = tested on: SK-MEL-2
SF-268 = tested on: SF-268
NCI-H226 = tested on: NCI-H226
TK-10 = tested on: TK-10
SK-MEL-5 = tested on: SK-MEL-5
NCI-H23 = tested on: NCI-H23
MDA-MB-435 = tested on: MDA-MB-435
HCT-15 = tested on: HCT-15
HOP-92 = tested on: HOP-92
LOX IMVI = tested on: LOX IMVI
CAKI-1 = tested on: CAKI-1
RXF 393 = tested on: RXF 393
KM12 = tested on: KM12
UO-31 = tested on: UO-31
SN12C = tested on: SN12C
UACC-257 = tested on: UACC-257
OVCAR-8 = tested on: OVCAR-8
K562 = tested on: K562

Structure (SMILES)	GI50 (Hs-578T)	GI50 (IGROV-1)	GI50 (SK-MEL-2)	GI50 (SF-268)	GI50 (NCI-H226)	GI50 (TK-10)	GI50 (SK-MEL-5)	GI50 (NCI-H23)	GI50 (MDA-MB-435)	GI50 (HCT-15) [µM]	GI50 (HOP-92)	GI50 (LOX IMVI)	GI50 (CAKI-1)	GI50 (RXF 393)	GI50 (KM12)	GI50 (UO-31)	GI50 (SN12C)	GI50 (UACC-257)	GI50 (OVCAR-8)	GI50 (K562)
COc1cc(/C=C2\NC(=O)N(/C=C3\C(=O)Oc4ccccc4C3=O)C2=O)ccc1O	33.6 µM (inactive)	62.7 µM (inactive)	> 100 µM (inactive)	57.1 µM (inactive)	> 100 µM (inactive)	> 100 µM (inactive)	41 µM (inactive)	80.2 µM (inactive)	> 100 µM (inactive)	39.3	> 100 µM (inactive)	49.5 µM (inactive)	59.8 µM (inactive)	25.1 µM (inactive)	54.1 µM (inactive)	44.4 µM (inactive)	54.3 µM (inactive)	> 100 µM (inactive)	56 µM (inactive)	> 100 µM (inactive)
O=C(Nc1sccc1S(=O)(=O)c1ccc(Cl)cc1)c1ccc(Cl)cc1Cl	> 100 µM (inactive)	> 100 µM (inactive)	> 100 µM (inactive)	> 100 µM (inactive)	> 100 µM (inactive)	> 100 µM (inactive)	47 µM (inactive)	> 81.3 µM (inactive)	14.5 µM (inactive)	> 100	> 93.1 µM (inactive)	> 74.6 µM (inactive)	> 100 µM (inactive)	> 100 µM (inactive)	82.2 µM (inactive)	> 100 µM (inactive)	> 100 µM (inactive)	23.4 µM (inactive)	> 100 µM (inactive)	> 53.3 µM (inactive)
COC(=O)CCC(NC(=O)OC(C)(C)C)C(=O)NC(Cc1ccc([N+](=O)[O-])cc1)C(=O)NCC(=O)OCc1ccccc1 (configuration not stated) (Boc-Glu(OMe)-[Phe(4-NO2)]-Gly-OBn; configuration not given here)	23 µM (inactive)	> 100 µM (inactive)	> 77.1 µM (inactive)	37.2 µM (inactive)	> 64.1 µM (inactive)	> 100 µM (inactive)	> 100 µM (inactive)	> 78.9 µM (inactive)	> 100 µM (inactive)	> 100	42.4 µM (inactive)	> 48.2 µM (inactive)	> 65.6 µM (inactive)	26.9 µM (inactive)	> 100 µM (inactive)	> 100 µM (inactive)	> 100 µM (inactive)	> 100 µM (inactive)	46.7 µM (inactive)	> 100 µM (inactive)
Sc1ncnc2nc[nH]c12 [MERCAPTOPURINE ANHYDROUS]	14.2 µM (inactive)	9.48 µM (inactive)	5.97 µM (inactive)	4.11 µM (inactive)	58.5 µM (inactive)	1.94 µM (inactive)	8.36 µM (inactive)	3.89 µM (inactive)	1.44 µM (inactive)	4.57	2.94 µM (inactive)	0.383 µM (active)	3.21 µM (inactive)	29.5 µM (inactive)	7.57 µM (inactive)	6.85 µM (inactive)	23.8 µM (inactive)	14.4 µM (inactive)	2.54 µM (inactive)	0.351 µM (active)
CC1=NN(c2nc(N)nc(CCl)n2)C(C)(C)C1	21 µM (inactive)	4.41 µM (inactive)	46.8 µM (inactive)	20.6 µM (inactive)	38.1 µM (inactive)	> 71.6 µM (inactive)	19.8 µM (inactive)	10.8 µM (inactive)	34.8 µM (inactive)	21	17.9 µM (inactive)	1.78 µM (inactive)	3.15 µM (inactive)	> 56.8 µM (inactive)	19.3 µM (inactive)	9.02 µM (inactive)	30.3 µM (inactive)	51.9 µM (inactive)	23.9 µM (inactive)	27.2 µM (inactive)
Nc1ncnc2c1ncn2CCCNO	> 100 µM (inactive)	> 100 µM (inactive)	> 100 µM (inactive)	> 100 µM (inactive)	> 100 µM (inactive)	> 100 µM (inactive)	> 100 µM (inactive)	> 100 µM (inactive)	> 100 µM (inactive)	> 100	> 100 µM (inactive)	> 100 µM (inactive)	> 100 µM (inactive)	> 100 µM (inactive)	> 100 µM (inactive)	> 100 µM (inactive)	> 100 µM (inactive)	> 100 µM (inactive)	> 100 µM (inactive)	> 100 µM (inactive)
O=C1c2ccccc2C(=O)N1CCCCCCNOCCCN1C(=O)c2ccccc2C1=O	> 100 µM (inactive)	90.6 µM (inactive)	16.3 µM (inactive)	> 100 µM (inactive)	> 100 µM (inactive)	59 µM (inactive)	15.4 µM (inactive)	26.1 µM (inactive)	25.2 µM (inactive)	40.2	34 µM (inactive)	36.2 µM (inactive)	50.4 µM (inactive)	17.5 µM (inactive)	27.1 µM (inactive)	34 µM (inactive)	> 100 µM (inactive)	31.1 µM (inactive)	38.9 µM (inactive)	29.7 µM (inactive)
NS(=O)(=O)c1c(O)c2ccccc2oc1=O	> 100 µM (inactive)	> 100 µM (inactive)	> 100 µM (inactive)	> 100 µM (inactive)	> 100 µM (inactive)	> 100 µM (inactive)	> 100 µM (inactive)	> 100 µM (inactive)	> 100 µM (inactive)	–	> 100 µM (inactive)	> 100 µM (inactive)	> 100 µM (inactive)	> 100 µM (inactive)	> 100 µM (inactive)	> 100 µM (inactive)	> 100 µM (inactive)	> 100 µM (inactive)	> 100 µM (inactive)	> 100 µM (inactive)
CC(=O)Oc1c(N2CCCCC2)c(C(=O)c2ccccc2)c(O)c2ccn(N(C)C)c12	28.8 µM (inactive)	–	25.2 µM (inactive)	21.9 µM (inactive)	14.2 µM (inactive)	16.7 µM (inactive)	15.9 µM (inactive)	18.9 µM (inactive)	19.7 µM (inactive)	18	23.9 µM (inactive)	14.1 µM (inactive)	15.4 µM (inactive)	20.7 µM (inactive)	10.9 µM (inactive)	17.6 µM (inactive)	18.5 µM (inactive)	16.8 µM (inactive)	20.7 µM (inactive)	34.4 µM (inactive)
CN(C)CCNC(=O)Cn1ccc(=O)c2cc([N+](=O)[O-])ccc21	> 100 µM (inactive)	> 100 µM (inactive)	> 100 µM (inactive)	> 100 µM (inactive)	> 100 µM (inactive)	> 100 µM (inactive)	> 100 µM (inactive)	> 100 µM (inactive)	> 100 µM (inactive)	> 100	> 100 µM (inactive)	> 100 µM (inactive)	> 100 µM (inactive)	> 100 µM (inactive)	> 100 µM (inactive)	> 100 µM (inactive)	> 100 µM (inactive)	> 100 µM (inactive)	–	> 100 µM (inactive)
